Measured values reported in article PMC5500991, “Substituted arylsulphonamides as inhibitors of perforin-mediated lysis” (European Journal of Medicinal Chemistry, 2017).

How the values were obtained:
[1] = parameters: method as in PMID 28110869; conditions: parent remaining after 30 min, rat microsomes; cited from earlier work
[2] = In vivo plasma pharmacokinetics in mice; conditions: mouse plasma, 10 mg/kg i.p. in 20% hydroxypropyl-β-cyclodextrin
Protocol: The in vivo PK parameters were measured for seven compounds selected on the basis of the in vitro assessment described above. Plasma pharmacokinetics were determined in male CD-1 mice for compounds 3, 10, 11, 26, 50, 58 and 59 (Table 6). Blood samples were collected at 5–8 time-points after dosing the compounds at 10 mg/kg in a solution of 20% hydroxypropyl-β-cyclodextrin by intraperitoneal (IP) injection. For analysis of the samples, chromatographic conditions were optimised by HPLC for each compound of interest and an internal standard. A liquid chromatography with tandem mass spectrometry (LC-MS/MS) method was then developed and validated for quantitation of each analyte.
PK studies were carried out in female C57BL/6J (female) mice using IP administration of test compound, dosing at 10 mg/kg in a solution of 20% hydroxypropyl-β-cyclodextrin. Mice (n=3 at each time point) were culled with excess inhalation of CO2 and blood collected by cardiac puncture at 5-8 time points after dosing in ice cold EDTA tubes. Plasma was separated by centrifuging at 6000 rpm for 5 min and stored at -80°C until analysis by LC-MS/MS. Frozen plasma was thawed on wet ice on the day of analysis. Ten μL of sample was transferred to a clean microcentrifuge tube and mixed with ice cold acetonitrile (40 μL containing internal standard) to precipitate the plasma proteins. The tubes were centrifuged at 13000 rpm for 5 min to obtain a clear supernatant which was mixed with 0.01% formic acid-water (1:2). Ten to twenty µL was injected into the LC-MS/MS to measure the analyte concentration in the sample. The samples were quantitated against a calibration curve of known analyte concentrations run in test species blank plasma (sourced from Innovative Research, USA). The concentration vs time data was then fitted into a pharmacokinetic software program (Phoenix WinNonlin v6.2) to calculate the PK parameters including T½, Cmax and AUC0-∞.

[3] = parameters: method as in PMID 28110869; conditions: sodium salt, 24 h at 20 °C in water; cited from earlier work
[4] = parameters: method as in PMID 28110869; conditions: sodium salt in water at room temperature; cited from earlier work
[5] = Toxicity to KHYG1 NK cells (Trypan blue exclusion); assay type: cell-based, human; conditions: human, viability of KHYG1 NK cells after 24 h, n = 3
[6] = target: T1, perforin delivered by KHYG1 NK cells (Homo sapiens, UniProt P14222); test: KHYG1 inhibitory assay: lysis of 51Cr-labelled K562 target cells by KHYG1 NK cells; assay type: cell-based; conditions: 51Cr-labelled K562 target cells co-incubated with KHYG1 human NK cells, vs untreated control, n = 4
T1 construct: The use of whole NK cells to deliver perforin provides a more realistic model of conditions in vivo; endogenous in cells; host or cells: KHYG1 human NK cells (effector); K562 leukemia target cells
T1 sequence (P14222 22-555): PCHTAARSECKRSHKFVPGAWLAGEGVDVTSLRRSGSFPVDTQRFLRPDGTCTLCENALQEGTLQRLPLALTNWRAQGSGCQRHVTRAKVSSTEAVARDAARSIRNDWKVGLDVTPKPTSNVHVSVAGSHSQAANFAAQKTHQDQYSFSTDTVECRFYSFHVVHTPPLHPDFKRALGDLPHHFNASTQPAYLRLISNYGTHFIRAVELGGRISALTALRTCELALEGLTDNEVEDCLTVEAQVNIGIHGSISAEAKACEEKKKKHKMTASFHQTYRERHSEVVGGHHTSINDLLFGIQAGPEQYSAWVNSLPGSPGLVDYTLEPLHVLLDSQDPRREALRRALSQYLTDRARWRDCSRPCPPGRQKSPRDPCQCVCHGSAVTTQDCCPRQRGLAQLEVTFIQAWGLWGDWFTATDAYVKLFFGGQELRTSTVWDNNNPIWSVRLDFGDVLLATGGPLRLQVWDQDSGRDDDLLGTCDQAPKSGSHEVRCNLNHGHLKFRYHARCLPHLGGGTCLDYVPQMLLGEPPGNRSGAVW
Protocol: The inhibitory function is then determined by identifying the number of untreated or inhibitor treated effector cells required to kill the same number of targets.

AUC0-∞ [2]: 220 µM·h
Cmax [2]: 10 µM
T1/2 [2]: 12.0 h
inhibition at 10 µM [6]: 67.5 ± 17.5%
SMILES: CN1Cc2cc(-c3ccc(-c4cncc(NS(=O)(=O)c5ccc(F)cc5F)c4)s3)ccc2C1=O [Compound 3]
Microsome Stability (%) Rat [1]: 99%
Stability in Solution (% parent remaining) [3]: 82%
Solubility [4]: 1080 µg/mL
viability at 24 h, 10 µM [5]: 100%
